Where only a bound is given, the exact number is not on record here.

Series [1] concerns the target Serine-protein kinase ATM (Homo sapiens, UniProt Q13315). Description: Inhibition of ATM (unknown origin).
The nature of series [2]: Inhibition of PI3K (unknown origin). Details: species or system Homo sapiens.
In series [3] the target is Serine/threonine-protein kinase ATR (Homo sapiens, UniProt Q13535). Description: Inhibition of ATR (unknown origin).
Series [4] has as its target DNA-dependent protein kinase catalytic subunit (Homo sapiens, UniProt P78527). Description: Inhibition of DNAPK (unknown origin).
Series [5] deals with Serine/threonine-protein kinase mTOR (Homo sapiens, UniProt P42345). Description: Inhibition of mTOR (unknown origin).
The species entered for series [6] is Homo sapiens. Nature of the series: Toxicity in patient with refractory acute leukemia. Format: organism-based. The note with it: in vivo.
The nature of series [7]: Terminal half life in BRCA mutation carrying cancer patient with sporadic cancer. The following applies: human, in vivo.
Series [8] can be described thus: Cmax in BRCA mutation carrying cancer patient with sporadic cancer. The following applies: human, in vivo.
A short description of series [9]: Cmax in advanced breast cancer patient with BRCA1/2 mutations at 400 mg dosed twice daily. Also on record: dose 400 mg. The note with it: human, in vivo. Format: ADME, organism-based.
Series [10] deals with Homo sapiens. Description: In vivo inhibition of PARP activity in peripheral blood mononuclear cells of advanced breast cancer patient with BRCA1/2 mutations at 400 mg dosed twice daily. Format: functional.
The test system of series [11] is Homo sapiens. Description: In vivo inhibition of PARP activity in tumor tissue of advanced breast cancer patient with BRCA1/2 mutations at 400 mg dosed twice daily. Format: functional.
The test system of series [12] is Homo sapiens. Nature of the series: Toxicity in advanced breast cancer patient with BRCA1/2 mutations assessed as maximum tolerated dose for twice daily dosing. The note with it: in vivo. Format: organism-based.
Series [13] in a line: Terminal half life in advanced breast cancer patient with BRCA1/2 mutations at 400 mg dosed twice daily. Format: ADME, organism-based. The note with it: human, in vivo, read-out: beta t1/2 (converted).
The species named for series [14] is Homo sapiens. Nature of the series: Toxicity in patient with solid tumor co-treated with 500 mg/m2 pemetrexed. Format: organism-based. The following applies: in vivo.
Series [15] has as its system Homo sapiens. Description: In vivo inhibition of PARP activity in peripheral blood mononuclear cells of advanced solid tumor patient at 12 mg/m2 co-treated with rucaparib and temzolomide. Format: functional.
Series [16] relates to Homo sapiens. Description: Toxicity in refractory solid tumor and lymphoma patient at 10 mg dosed twice daily on days 1 to 5 in 21-day cycles co-treated with 50 mg cyclophosphamide once daily administered on days 1 to 5. The following applies: in vivo. Format: organism-based.
Series [17] deals with Homo sapiens. Nature of the series: In vivo inhibition of PARP activity in tumor tissue of refractory solid tumor and lymphoma patient at 10 mg dosed twice daily on days 1 to 5 in 21-day cycles co-treated with 50 mg cyclophosphamide once daily administered on days 1 to 5. Format: functional.
In series [18] the test system is Homo sapiens. Nature of the series: In vivo inhibition of PARP activity in peripheral blood mononuclear cells of refractory solid tumor and lymphoma patient at 10 mg dosed twice daily on days 1 to 5 in 21-day cycles co-treated with 50 mg cyclophosphamide once daily administered on days 1 to 5. Format: functional.
In series [19] the test system is Homo sapiens. Description: Toxicity in refractory solid tumor and lymphoma patient at 10 mg dosed twice daily on days 1 to 5 in 21-day cycles co-treated with 0.6 mg/m2/day, iv topotecan administered on days 1 to 5. Format: organism-based. The following applies: in vivo.
The nature of series [20]: Half life in refractory solid tumor and lymphoma patient. The following applies: human, in vivo.

Sequence of DNA-dependent protein kinase catalytic subunit (P78527 whole entry): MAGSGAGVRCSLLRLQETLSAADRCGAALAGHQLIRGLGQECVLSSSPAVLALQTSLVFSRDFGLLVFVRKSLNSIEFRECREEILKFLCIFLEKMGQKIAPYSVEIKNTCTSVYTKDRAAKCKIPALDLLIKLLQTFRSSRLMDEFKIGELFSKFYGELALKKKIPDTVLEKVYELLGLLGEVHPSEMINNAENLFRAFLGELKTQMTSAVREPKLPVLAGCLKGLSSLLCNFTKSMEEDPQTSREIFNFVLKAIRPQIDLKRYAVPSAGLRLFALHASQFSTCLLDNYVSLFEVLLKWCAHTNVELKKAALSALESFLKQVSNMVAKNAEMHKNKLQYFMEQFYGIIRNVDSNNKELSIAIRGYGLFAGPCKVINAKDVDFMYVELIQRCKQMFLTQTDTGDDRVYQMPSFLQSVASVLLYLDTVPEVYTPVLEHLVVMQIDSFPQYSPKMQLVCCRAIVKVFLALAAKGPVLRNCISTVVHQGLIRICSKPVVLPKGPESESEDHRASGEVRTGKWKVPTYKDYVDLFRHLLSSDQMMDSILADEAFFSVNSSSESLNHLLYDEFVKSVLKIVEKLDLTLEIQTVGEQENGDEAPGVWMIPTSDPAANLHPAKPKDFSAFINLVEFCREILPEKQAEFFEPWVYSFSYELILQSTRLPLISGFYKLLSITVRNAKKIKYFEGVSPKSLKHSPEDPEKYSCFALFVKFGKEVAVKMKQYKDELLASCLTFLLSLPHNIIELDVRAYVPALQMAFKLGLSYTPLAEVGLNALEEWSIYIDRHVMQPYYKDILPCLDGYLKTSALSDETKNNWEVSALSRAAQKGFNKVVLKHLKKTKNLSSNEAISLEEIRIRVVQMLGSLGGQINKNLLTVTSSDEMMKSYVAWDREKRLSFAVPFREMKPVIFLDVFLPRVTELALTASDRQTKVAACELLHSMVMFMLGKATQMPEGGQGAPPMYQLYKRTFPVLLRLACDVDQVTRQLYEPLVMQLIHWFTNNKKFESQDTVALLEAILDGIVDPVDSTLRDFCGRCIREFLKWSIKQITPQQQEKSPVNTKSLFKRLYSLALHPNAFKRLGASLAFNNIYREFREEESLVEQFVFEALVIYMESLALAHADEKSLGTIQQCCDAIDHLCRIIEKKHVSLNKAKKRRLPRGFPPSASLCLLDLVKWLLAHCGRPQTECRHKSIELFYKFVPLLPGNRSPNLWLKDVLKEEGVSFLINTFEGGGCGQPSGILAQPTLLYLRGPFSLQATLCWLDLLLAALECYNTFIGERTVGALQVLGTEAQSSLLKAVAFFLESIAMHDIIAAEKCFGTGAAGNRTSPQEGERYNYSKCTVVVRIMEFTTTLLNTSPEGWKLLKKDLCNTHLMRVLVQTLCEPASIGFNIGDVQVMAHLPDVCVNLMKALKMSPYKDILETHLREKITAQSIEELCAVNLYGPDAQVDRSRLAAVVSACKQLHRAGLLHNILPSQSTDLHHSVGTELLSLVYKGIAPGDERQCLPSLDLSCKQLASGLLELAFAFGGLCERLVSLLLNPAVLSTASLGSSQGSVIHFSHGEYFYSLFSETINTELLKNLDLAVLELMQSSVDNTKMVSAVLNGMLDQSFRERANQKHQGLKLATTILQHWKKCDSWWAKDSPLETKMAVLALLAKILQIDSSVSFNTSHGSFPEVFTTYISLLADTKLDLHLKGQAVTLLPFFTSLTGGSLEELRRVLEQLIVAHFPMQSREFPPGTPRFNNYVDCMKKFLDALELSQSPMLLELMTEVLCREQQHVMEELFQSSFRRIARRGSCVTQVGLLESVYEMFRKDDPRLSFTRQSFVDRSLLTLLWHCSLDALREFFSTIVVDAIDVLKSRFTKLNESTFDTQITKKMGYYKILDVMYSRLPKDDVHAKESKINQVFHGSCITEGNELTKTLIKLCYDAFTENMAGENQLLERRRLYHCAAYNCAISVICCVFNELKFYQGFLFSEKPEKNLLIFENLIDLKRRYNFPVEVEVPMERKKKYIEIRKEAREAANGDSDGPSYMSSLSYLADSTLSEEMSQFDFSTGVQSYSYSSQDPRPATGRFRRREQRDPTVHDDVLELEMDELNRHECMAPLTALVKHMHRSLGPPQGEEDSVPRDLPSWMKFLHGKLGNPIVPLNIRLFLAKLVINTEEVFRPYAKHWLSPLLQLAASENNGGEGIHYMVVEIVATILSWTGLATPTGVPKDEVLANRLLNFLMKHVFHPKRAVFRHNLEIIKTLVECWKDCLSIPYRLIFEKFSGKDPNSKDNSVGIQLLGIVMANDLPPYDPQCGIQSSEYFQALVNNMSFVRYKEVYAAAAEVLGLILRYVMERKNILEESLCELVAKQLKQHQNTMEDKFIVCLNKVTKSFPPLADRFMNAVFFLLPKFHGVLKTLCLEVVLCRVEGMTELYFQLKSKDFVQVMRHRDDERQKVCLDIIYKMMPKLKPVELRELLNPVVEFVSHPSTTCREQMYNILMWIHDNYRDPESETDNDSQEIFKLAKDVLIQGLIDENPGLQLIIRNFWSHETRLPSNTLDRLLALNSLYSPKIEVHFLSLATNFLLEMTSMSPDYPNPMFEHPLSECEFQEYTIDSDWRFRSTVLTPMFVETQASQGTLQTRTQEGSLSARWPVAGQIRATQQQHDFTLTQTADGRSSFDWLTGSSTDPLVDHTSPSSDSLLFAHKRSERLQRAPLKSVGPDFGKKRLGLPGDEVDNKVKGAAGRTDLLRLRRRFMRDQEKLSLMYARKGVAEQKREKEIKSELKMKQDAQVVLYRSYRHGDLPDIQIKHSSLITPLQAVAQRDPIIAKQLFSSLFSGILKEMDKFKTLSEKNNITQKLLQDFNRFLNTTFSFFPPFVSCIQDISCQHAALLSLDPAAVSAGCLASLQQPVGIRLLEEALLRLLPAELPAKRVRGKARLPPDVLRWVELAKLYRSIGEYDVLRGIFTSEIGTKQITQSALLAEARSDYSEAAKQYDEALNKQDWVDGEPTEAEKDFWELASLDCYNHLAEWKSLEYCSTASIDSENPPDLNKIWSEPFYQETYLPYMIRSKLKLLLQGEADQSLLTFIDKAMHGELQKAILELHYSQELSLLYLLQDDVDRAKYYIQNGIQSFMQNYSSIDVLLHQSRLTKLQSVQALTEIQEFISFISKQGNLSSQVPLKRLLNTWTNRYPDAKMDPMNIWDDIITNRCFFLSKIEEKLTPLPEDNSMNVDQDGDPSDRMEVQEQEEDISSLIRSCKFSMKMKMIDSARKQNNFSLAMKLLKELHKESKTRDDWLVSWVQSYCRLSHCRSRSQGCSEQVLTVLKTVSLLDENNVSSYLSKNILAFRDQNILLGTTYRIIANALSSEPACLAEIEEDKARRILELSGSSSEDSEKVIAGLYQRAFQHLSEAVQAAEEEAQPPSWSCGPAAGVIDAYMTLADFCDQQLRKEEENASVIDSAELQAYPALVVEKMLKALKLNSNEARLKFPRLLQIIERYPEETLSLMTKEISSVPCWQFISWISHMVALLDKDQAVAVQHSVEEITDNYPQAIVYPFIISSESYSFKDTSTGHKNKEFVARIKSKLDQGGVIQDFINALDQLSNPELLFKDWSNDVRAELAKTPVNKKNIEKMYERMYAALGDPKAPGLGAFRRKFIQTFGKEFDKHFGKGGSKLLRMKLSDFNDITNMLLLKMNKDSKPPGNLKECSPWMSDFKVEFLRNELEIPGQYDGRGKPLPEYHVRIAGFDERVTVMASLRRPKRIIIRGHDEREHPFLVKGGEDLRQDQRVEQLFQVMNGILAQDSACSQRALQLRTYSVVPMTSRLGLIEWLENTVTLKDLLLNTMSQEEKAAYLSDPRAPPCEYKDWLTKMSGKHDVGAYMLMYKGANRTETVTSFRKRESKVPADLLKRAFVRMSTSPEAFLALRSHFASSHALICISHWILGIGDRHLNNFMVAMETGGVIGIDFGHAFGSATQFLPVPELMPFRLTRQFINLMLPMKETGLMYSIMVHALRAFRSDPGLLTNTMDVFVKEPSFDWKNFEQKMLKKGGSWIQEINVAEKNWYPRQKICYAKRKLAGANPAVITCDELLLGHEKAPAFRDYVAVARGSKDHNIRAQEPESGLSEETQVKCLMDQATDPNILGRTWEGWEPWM

For `CC(C)(C#N)c1ccc(N2C(=O)OCc3cnc4ccc(-c5cnc6ccccc6c5)cc4c32)cc1`, the IC50 in series [1] is greater than 36 nM; in [2], greater than 36 nM; in [3], 14 nM; in series [4] it was greater than 36 nM; in series [5] it was 0.6 nM.
On to `Cn1cc(C2C=NN3C(N)=C(Br)C([C@@H]4CCCNC4)=NC23)cn1` (stereo not given in full), for which the MTD in series [6] is 56 mg/m2.
`NC(=O)c1cccc2cn(-c3ccc([C@@H]4CCCNC4)cc3)nc12` [NIRAPARIB] gave a half-life in series [7] of 36.4 h. Further, the peak level in series [8] (Cmax) was 2000 nM.
As for `O=C(c1cc(Cc2n[nH]c(=O)c3ccccc23)ccc1F)N1CCN(C(=O)C2CC2)CC1` [OLAPARIB], in series [9], the concentration peaked (Cmax) at 2600 ng/mL. Moreover, the figures for the “inhibition (INH)” value in [10] and in series [11] were 50% and 70%, respectively. Moreover, the MTD in series [12] was determined as 400 mg. Moreover, the half-life in series [13] is 7 h.
As to `Cc1cnc(NC(=O)Nc2cc(Br)c(C)cc2OC[C@@H]2CNCCO2)cn1` [RABUSERTIB], the MTD in [14] is 150 mg/m2.
Turning to `CNCc1ccc(-c2[nH]c3cc(F)cc4c3c2CCNC4=O)cc1` [RUCAPARIB], the inhibition in vivo at 12 mg/m2 in series [15] is 74%.
With `C[C@]1(c2nc3c(C(N)=O)cccc3[nH]2)CCCN1` [VELIPARIB], the MTD in series [16] and in series [19] was 60 mg in each case. Further, the “inhibition (INH)” value is listed as 80% in series [17] and 50% in [18]. For the same compound, the half-life in [20] was 5 h.

A word on the IC50: it is the point on the concentration scale where inhibition reaches its midpoint. Low readings indicate higher potency, high ones lower potency. One may read the Cmax as the peak of the concentration-time curve. In general, inhibition in vivo refers to the share of the control response that was lost under treatment.

(Values after ChEMBL document CHEMBL3352686, “Development of synthetic lethality anticancer therapeutics” (J Med Chem, 2014).)
